The IC50 is the concentration that inhibits the measured activity by half. As usually defined, the EC50 is the concentration needed to bring the measured effect to its halfway point.

For assay [1], the system named is NUGC3 (P53 Y220C). Put plainly: Cell viability assay (CellTiter-Glo, 6 days), NUGC3. It counts as cell-based. Particulars: cell viability, 6 days, CellTiter-Glo, read-out: NUGC3 (P53 Y220C) IC50. A digest of the protocol: (§1)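 After a 6-day compound exposure following overnight plating, ATP luminescence (CellTiter-Glo) gave percent viability relative to DMSO-treated cells and cell-free medium controls. IC50 = concentration at 50% viability, from 4-parameter logistic or Excel fit.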
(In general: In ATP-based viability assays light output follows the ATP content of the culture.)

Assay [2] relates to NUGC4 (P53 WT). The experiment in a line: Cell viability assay (CellTiter-Glo, 6 days), NUGC4. It counts as cell-based. The note with it: cell viability, 6 days, CellTiter-Glo, read-out: NUGC4 (P53 WT) IC50. A digest of the protocol: as §1
Assay [3] concerns NUGC-3_P53_Luc single clonal cell line (p53 Y220C). Put plainly: Reporter gene assay (p53 RE luciferase). In kind it is cell-based. The note with it: luciferase reporter, 6 hours, normalized to Ref-1a (10 μM) high control, read-out: p53(Y220C)_NUGC-3 EC50. In outline:
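Luminescence normalised to DMSO-only (0%) and 10 μM Ref-1a (100%) wells gives % activity, fitted by 4-parameter logistic or Excel to yield EC50 at 50%. Reporter line: NUGC-3 with p53 response element-luc2P, compound-treated 6 h at 37 °C.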
A general note: In a reporter assay the amount or activity of a reporter protein is the signal.

Assay [4] has as its target T1, His-p53 Y220C (94-294) protein (Homo sapiens, UniProt P04637, Y220C).
T1 construct: His-p53 Y220C (94-294) protein
Put plainly: In vitro DNA binding assay (HTRF). The note with it: % activation normalized to 2 μM Ref-1a high control. It counts as biochemical. Background: Time-resolved FRET reads energy transfer from a long-lived donor to a nearby acceptor.

Read-outs that look alike come from different tables or passages of the source.

For the compound `CNC(=O)c1ccc(NCC#Cc2sc3c(N[C@@H]4CCN(C)C[C@@H]4F)cccc3c2CC(F)(F)F)c(OC)c1` [Example 113, 4-((3-(7-(((3S,4R)-3-fluoro-1-methylpiperidin-4-yl)amino)-3-(2,2,2-trifluoroethyl)benzo[b]thiophen-2-yl)prop-2-yn-1-yl)amino)-3-methoxy-N-methylbenzamide], the IC50 in assay [1] (Homo sapiens, NUGC-3, 144 h) was found to be 930 nM; in assay [2] (Homo sapiens, NUGC-4, 144 h), 6100 nM. In addition, the EC50 is 70 nM in assay [3] (Homo sapiens, NUGC-3, 6 h) and 44 nM in assay [4].
With `CNC(=O)c1cc(NCC#Cc2sc3c(N[C@@H]4CCN(C5CCOCC5)C[C@@H]4F)cccc3c2CC(F)(F)F)c(OC)cc1P(C)(C)=O` [Example 160, 2-dimethylphosphoryl-5-[3-[7-[[(3S,4R)-3-fluoro-1-tetrahydropyran-4-yl-4-piperidyl]amino]-3-(2,2,2-trifluoroethyl)benzothiophen-2-yl]prop-2-ynylamino]-4-methoxy-N-methyl-benzamide], the IC50 was 1410 nM in assay [1] (Homo sapiens, NUGC-3, 144 h) and greater than 50000 nM in assay [2] (Homo sapiens, NUGC-4, 144 h). Further, the 50% effective concentration (EC50) in assay [3] (Homo sapiens, NUGC-3) came out at 190 nM; in assay [4], 41 nM.
For `COc1cc(P(C)(C)=O)ccc1NCC#Cc1sc2c(N[C@@H]3CCN(C4CC5CCC(C4)O5)C[C@@H]3F)cccc2c1CC(F)(F)F` (stereo partly drawn) [Example 180, (4-((3-(7-(((3S,4R)-1-(8-oxabicyclo[3.2.1]octan-3-yl)-3-fluoropiperidin-4-yl)amino)-3-(2,2,2-trifluoroethyl)benzo[b]thiophen-2-yl)prop-2-yn-1-yl)amino)-3-methoxyphenyl)dimethylphosphine oxide] the same measures were 910 nM, 5890 nM, 110 nM and 50 nM.
`COc1cc(P(C)(C)=O)ccc1NCC#Cc1sc2c(N[C@@H]3CCN(C4COC4)C[C@@H]3F)cccc2c1CC(F)(F)F` (racemic) [Example 75, (4-((3-(7-(((Z)-3-fluoro-1-(oxetan-3-yl)piperidin-4-yl)amino)-3-(2,2,2-trifluoroethyl)benzo[b]thiophen-2-yl)prop-2-yn-1-yl)amino)-3-methoxyphenyl)dimethylphosphine oxide]: the half-maximal inhibitory concentration (IC50) turned out to be 1020 nM in assay [1] (Homo sapiens, NUGC-3, 144 h) and 5340 nM in assay [2] (Homo sapiens, NUGC-4, 144 h). Besides, the EC50 in assay [3] (Homo sapiens, NUGC-3) is 160 nM; in assay [4], 82 nM.
Take `COc1cc(P(C)(C)=O)ccc1NCC#Cc1sc2c(NC3CCN(C)CC3F)cccc2c1CC(F)(F)F` (stereo not shown) [Example 15, (4-((3-(7-(((Z)-3-fluoro-1-methylpiperidin-4-yl)amino)-3-(2,2,2-trifluoroethyl)benzo[b]thiophen-2-yl)prop-2-yn-1-yl)amino)-3-methoxyphenyl)dimethylphosphine oxide]: the IC50 turned out to be 360 nM in assay [1] and 6990 nM in assay [2]. For the same compound, the concentration giving a half-maximal response (EC50) stood at 310 nM in assay [3] and 34 nM in assay [4].
Take `COc1cc(P(C)(C)=O)ccc1NCC#Cc1sc2c(N[C@@H]3CCN(CC(C)C)C[C@@H]3F)cccc2c1CC(F)(F)F` (racemic) [Example 101, (4-((3-(7-(((Z)-3-fluoro-1-isobutylpiperidin-4-yl)amino)-3-(2,2,2-trifluoroethyl)benzo[b]thiophen-2-yl)prop-2-yn-1-yl)amino)-3-methoxyphenyl)dimethylphosphine oxide]: the 50% inhibitory concentration (IC50) in assay [1] (Homo sapiens, NUGC-3, 144 h) stood at 2050 nM; in assay [2] (Homo sapiens, NUGC-4, 144 h) it was 2050 nM. Moreover, the EC50 in assay [3] (Homo sapiens, NUGC-3) stood at 360 nM; in assay [4], 105 nM.
For the compound `COc1cc(P(C)(C)=O)ccc1NCC#Cc1sc2c(N[C@@H]3CCN(C4CCOCC4)C[C@@H]3F)cccc2c1CC(F)(F)F` (racemic) [Example 73, (Z)-(4-((3-(7-((3-fluoro-1-(tetrahydro-2H-pyran-4-yl)piperidin-4-yl)amino)-3-(2,2,2-trifluoroethyl)benzo[b]thiophen-2-yl)prop-2-yn-1-yl)amino)-3-methoxyphenyl)dimethylphosphine oxide], the IC50 in assay [1] (Homo sapiens, NUGC-3, 144 h) stood at 770 nM; in assay [2] (Homo sapiens, NUGC-4, 144 h), 3420 nM. In addition, the EC50 in assay [3] (Homo sapiens, NUGC-3) was determined as 130 nM; in assay [4], 70 nM.
As to `CNC(=O)c1cc(OC)c(NCC#Cc2sc3c(NC4CCN(C)CC4F)cccc3c2CC(F)(F)F)cn1` (stereo not shown) [Example 60, 5-((3-(3-(2,2,2-trifluoroethyl)-7-(((Z)-3-fluoro-1-methylpiperidin-4-yl)amino)benzo[b]thiophen-2-yl)prop-2-yn-1-yl)amino)-4-methoxy-N-methylpicolinamide], the half-maximal inhibitory concentration (IC50) stood at 1950 nM in assay [1] and 6100 nM in assay [2]. In addition, the 50% effective concentration (EC50) came out at 470 nM in assay [3] and 72 nM in assay [4].
`COc1cc(P(C)(C)=O)ccc1NCC#Cc1sc2c(NC3CCN(C4CCOCC4)CC3)cccc2c1CC(F)(F)F` [Example 154, (3-methoxy-4-((3-(7-((1-(tetrahydro-2H-pyran-4-yl)piperidin-4-yl)amino)-3-(2,2,2-trifluoroethyl)benzo[b]thiophen-2-yl)prop-2-yn-1-yl)amino)phenyl)dimethylphosphine oxide]: the IC50 amounted to 1890 nM in assay [1] (Homo sapiens, NUGC-3, 144 h) and 4190 nM in assay [2] (Homo sapiens, NUGC-4, 144 h). Also, the EC50 in assay [3] (Homo sapiens, NUGC-3) amounted to 410 nM; in assay [4] it was 67 nM.
As for `COc1cc(P(C)(C)=O)ccc1NCC#Cc1sc2c(N[C@H]3CCN(C)C[C@H]3C)cccc2c1CC(F)(F)F` [Example 125, (4-((3-(7-(((3R,4S)-1,3-dimethylpiperidin-4-yl)amino)-3-(2,2,2-trifluoroethyl)benzo[b]thiophen-2-yl)prop-2-yn-1-yl)amino)-3-methoxyphenyl)dimethylphosphine oxide], the concentration for half-maximal inhibition (IC50) came to 1270 nM in assay [1] (Homo sapiens, NUGC-3, 144 h) and 2570 nM in assay [2] (Homo sapiens, NUGC-4, 144 h). The EC50 in assay [3] (Homo sapiens, NUGC-3, 6 h) was 180 nM; in assay [4], 54 nM.
Turning to `CN1CC[C@@H](Nc2cccc3c(CC(F)(F)F)c(C#CCNc4ccc(P(C)(C)=O)cc4C(=O)NC4CCOCC4)sc23)[C@@H](F)C1` [Example 216, 5-(dimethylphosphoryl)-2-((3-(7-(((3S,4R)-3-fluoro-1-methylpiperidin-4-yl)amino)-3-(2,2,2-trifluoroethyl)benzo[b]thiophen-2-yl)prop-2-yn-1-yl)amino)-N-(tetrahydro-2H-pyran-4-yl)benzamide], the IC50 in assay [1] (Homo sapiens, NUGC-3, 144 h) was 270 nM; in assay [2] (Homo sapiens, NUGC-4, 144 h) it was greater than 50000 nM. The concentration for a half-maximal effect (EC50) in assay [3] (Homo sapiens, NUGC-3) was determined as 120 nM; in assay [4], 48 nM.
With `COc1cc(P(C)(C)=O)ccc1NCC#Cc1sc2c(N[C@@H]3CCN(C4CCN(C)CC4)C[C@@H]3F)cccc2c1CC(F)(F)F` (racemic) [Example 72, (Z)-(4-((3-(7-((3-fluoro-1′-methyl-[1,4′-bipiperidin]-4-yl)amino)-3-(2,2,2-trifluoroethyl)benzo[b]thiophen-2-yl)prop-2-yn-1-yl)amino)-3-methoxyphenyl)dimethylphosphine oxide], the 50% inhibitory concentration (IC50) in assay [1] (Homo sapiens, NUGC-3, 144 h) amounted to 430 nM; in assay [2] (Homo sapiens, NUGC-4, 144 h), 4430 nM. The EC50 was 210 nM in assay [3] (Homo sapiens, NUGC-3, 6 h) and 41 nM in assay [4].
As for `CN1CC[C@@H](Nc2cccc3c(CC(F)(F)F)c(C#CCNc4ccc(P(C)(C)=O)cc4OC(F)(F)F)sc23)[C@@H](F)C1` [Example 138, (4-((3-(7-(((3S,4R)-3-fluoro-1-methylpiperidin-4-yl)amino)-3-(2,2,2-trifluoroethyl)benzo[b]thiophen-2-yl)prop-2-yn-1-yl)amino)-3-(trifluoromethoxy)phenyl)dimethylphosphine oxide], the half-inhibitory concentration (IC50) in assay [1] (Homo sapiens, NUGC-3, 144 h) amounted to 880 nM; in assay [2] (Homo sapiens, NUGC-4, 144 h), 11100 nM. The EC50 in assay [3] (Homo sapiens, NUGC-3, 6 h) was 70 nM; in assay [4], 34 nM.
